This passage reports IC50 results from patent US5698564A, “Diphenyl disulfide compounds” (Nisshin Flour Milling Co., Ltd., priority 1994, dated 1997).

The test system of assay [1] is production of IL-1β (THP-1 cells). As to the kind of experiment: inhibition of the production of IL-1β in THP-1 cells stimulated with PMA and polyinosic acid (enzyme immunoassay). It is filed as cell-based. The following applies: Homo sapiens, PMA 2 μg/ml and polyinosic acid, 24 hours, read-out: IC50 (concentration to inhibit 50% the IL-1β production). As to the method: Compounds 1-3, the present diphenyl disulfide compounds obtained in Examples 1 and 2, were evaluated for the activity to inhibit the production of IL-1β, in accordance with the following method.
(§1) The THP-1 cells derived from human peripheral blood (ATCC TIB202) were suspended in RPMI 1640 medium (available from Bio-Whittaker Co., Ltd.) containing 10% (v/v) of fetal bovine serum, 2 mM of glutamine, 50 μM of 2-mercaptoethanol, 60 μg/ml of penicillin and 100 μg/ml of streptomycin.
The suspension of the THP-1 cell was subcultured at 37° C. under the atmosphere of […] and 5% carbon dioxide. A portion of the subcultured suspension was centrifuged at 1200 rpm at room temperature for 3 minutes to recover the subcultured THP-1 cells.
(§2) The resulting THP-1 cells were resuspended in RPMI 1640 medium containing 2% (v/v) of fetal bovine serum, 2 mM of glutamine, 50 μM of 2-mercaptoethanol, 60 μg/ml of penicillin and 100 μg/ml of streptomycin so as to provide a final THP-1 cell concentration of 3×10^6 cells/ml.
The resuspension of the cell was dispensed in 0.5 ml portions to wells of a 24-well plate for cell culture. Then, each solution of the present Compounds 1-3 dissolved in DMSO at the respective specified concentrations was added in 2.5 μl portions to each well. The plate was incubated at 37° C. under the atmosphere of 95% […] and 5% carbon dioxide for one hour. Then, 12-o-tetradecanoylphorbol-13-acetate (PMA) and polyinosic acid were added to each well so as to provide final concentrations of 2 μg/ml and […] respectively. The plate was incubated at 37° C. under the atmosphere of 95% […] and 5% carbon dioxide for 24 hours. After incubation, a supernatant was recovered from each well by means of Pipetteman available from Gilson Co., Ltd. Then, an amount of the IL-1β in the supernatant was assayed by means of the enzyme immunoassay kit available from Cayman Chemical Co., Ltd. […]

Assay [2] relates to release of TNFα (THP-1 cells). As to the kind of experiment: inhibition of the release of TNFα in THP-1 cells stimulated with PMA and polyinosic acid (ELISA). It is filed as cell-based. The following applies: Homo sapiens, PMA 2 μg/ml and polyinosic acid 200 μg/ml, 24 hours, read-out: IC50 (concentration to inhibit 50% the TNFα release). The method, then:
Compound 1, the present diphenyl disulfide compound obtained in Example 1, was evaluated for the activity to inhibit the release of TNFα, in accordance with the following method.
as §1
The suspension of THP-1 cell was subcultured at 37° C. under the atmosphere of 95% […] and 5% carbon dioxide. A portion of the subcultured suspension was centrifuged at 1200 rpm at room temperature for 3 minutes to recover the subcultured THP-1 cells.
as §2
The resuspension of the cell was dispensed in 0.5 ml portions to wells of a 24-well plate for cell culture, and incubated at 37° C. for one hour. Each solution of the present Compound 1 dissolved in DMSO at the respective specified concentrations was added in 2.5 μl portions to each well. The plate was incubated at 37° C. under the atmosphere of 95% […] and 5% carbon dioxide for one hour. […]
Background: In an ELISA, binding on a coated surface is turned into a signal by an enzyme label.

Regarding `Nc1ccccc1SSc1ccccc1Nc1ncccn1` [Compound 1], the results for the IC50 in assay [1] and in assay [2] were 3.8 µM and 19 µM, respectively.
On to `c1cnc(Nc2ccccc2SSc2ccccc2Nc2ncccn2)nc1` [Compound 2], for which, in assay [1], the IC50 stood at 34 µM.
Still for that read-out and setting: to `O=[N+]([O-])c1ccc(SSc2ccccc2-c2nc3ccccc3[nH]2)c([N+](=O)[O-])c1` [Compound 3] belongs 34 µM.
